Results on three molecules are retold here after paper PMC7814183, “Supramolecular polymerization of sulfated dendritic peptide amphiphiles into multivalent L-selectin binders” (Beilstein Journal of Organic Chemistry, 2021).

Broadly, the IC50 is the concentration that gives 50% inhibition.

Read-outs that look alike come from different tables or passages of the source. Where only a bound is given, the exact number is not on record here.

The target in data set [1] is T1, L-selectin (Homo sapiens, UniProt P14151).
T1 construct: purchased R&D Systems, Minneapolis, USA
The following applies: literature comparison values; read-out: IC50, L-selectin binding; cited from earlier work. An excerpt: However, the densely sulfated dendritic polyglycerol of similar molecular weight is able to bind in the ...

Data set [2] can be described thus: TEM of negatively stained solutions (self-assembly morphology). Format: physicochemical. The following applies: TEM (25 µM, TRIS 20 mM pH 7.4, 100 mM NaCl) and cryo-TEM (50 µM, PBS (-/-) pH 7.4, 100 mM NaCl). Here is the method:
The application of transmission electron microscopy (TEM) gave further insight into the morphology of the assemblies induced by the secondary structure formation (Figure 1). All samples for convential TEM imaging were prepared by placing 5 μL of the aqueous solution on a sample grid for 1 min, followed by the removal of the excess liquid using a filter paper and subsequent negative staining using a 2% uranyl acetate solution. By analyzing a 25 μM aqueous solution of I, long rigid anisotopic rod-like structures with lengths of 200–400 nm could be visualized (Figure 1B and 1C), in agreement with our previously reported findings. […] The copresence of shorter, more flexible structures could be seen as well. […] Since the morphology of the aqueous supramolecular polymers observed in dry TEM can be influenced by the sample preparation, cryo-TEM experiments were furthermore performed in order to visualize the assemblies in a native state (Figure 1D and Figure S1 in Supporting Information File 1). The presence of straight nanorods of over 200 nm in length with a high degree of lateral order could be observed, thus corroborating the interpretations from dry TEM experiments.
In order to compare the morphology of the self-assembled sulfated compound II with the TEG-decorated compound I, TEM and cryo-TEM experiments were performed (Figure 2B and 2C). […]

Data set [3] is described as follows: CD spectroscopy, ionic strength-dependent titration of self-assembly. Format: physicochemical. The conditions noted are these: 25 µM solution in 20 mM TRIS, pH 7.4; CD band around 218 nm. An excerpt:
The self-assembly behavior of the peptide-based materials can be readily investigated using CD spectroscopy. The supramolecular polymerization strongly relies on the formation of secondary structure elements, leading to ordered domains that lead to characteristic CD band spectra. By probing aqueous solutions of I at different concentrations in H2O, a strongly negative CD band at around λ ≈ 220 nm became apparent (Figure 1A). In the past we have assigned this characteristic CD band to a β-sheet-dominated short-range ordering of oligopeptide monomers, which is stable over a wide concentration range [30, 39–40].
Attaching functional groups to the dendritic peptide amphiphiles – and thus the supramolecular polymers – by exchanging one of the shielding dendritic tetra(ethylene glycol) dendrons is important with regard to potential applications. However, depending on the nature of the functional groups, the influence on the self-assembly behavior may not be neglected. In the present work, the installation of a sulfated oligoglycerol dendron introduces eight anionic charges to the periphery of the peptide amphiphile II that possibly counteracts the β-sheet-driven self-assembly due to electrostatic repulsion. CD spectroscopic experiments based on 25 µM or 50 µM solutions of II in 20 mM TRIS as well as PBS buffer support this notion (Figure 2A and Figure S2 in Supporting Information File 1). […]

Data set [4] deals with T1, L-selectin. In words: competitive SPR L-selectin binding (inhibition) assay. The following applies: competitive SPR (BIAcore X); L-selectin/Fc chimera on protein A-coated 15 nm gold nanoparticles preincubated with analyte; chip with immobilized sulfated tyrosine/sialyl-Lewis X ligand; HEPES 0.020 M pH 7.4, 0.150 M NaCl, 0.001 M CaCl2; sigmoidal fit. Here is the method: The L-selectin binding behavior of the sulfated supramolecular polymer resulting from II was assessed using a competitive surface plasmon resonance (SPR) binding assay, whereby neutral supramolecular polymers of I were used as control experiment. L-Selectin-coated gold nanoparticles were incubated with analyte solutions of different concentrations and subsequently probed on an SPR-chip modified with immobilized sulfated tyrosine and sialyl-Lewis^X as model ligands. The resulting signal is referenced to a control experiment lacking the preincubation of L-selectin particles. Figure 3 summarizes the resulting dose–response curves.
Figure 3 Concentration-dependent relative L-selectin binding of the supramolecular polymers I and II in HEPES buffer (0.020 M, pH 7.4, with 0.150 M NaCl and 0.001 M CaCl2) measured by SPR. L-Selectin-coated nanoparticles were preincubated with solutions of the supramolecular polymers. […]
(Quantifoil R1/4) at room temperature. […]
autoloader protocol. The micrographs were recorded under low -dose conditions with a primary
magnification of 28000x and an acceleration voltage of 200 kV. The images were recorded by […]
Minneapolis, USA), and the binding signal to the artificial ligand was recorded. […]
taken, which yielded the respective dose–response curves. The IC50 values were determined […]
In general terms: Surface plasmon resonance follows binding to a sensor surface in real time, without labels.

T1 sequence (P14151 with tags, fused parts or gaps limits assumed, species assumed): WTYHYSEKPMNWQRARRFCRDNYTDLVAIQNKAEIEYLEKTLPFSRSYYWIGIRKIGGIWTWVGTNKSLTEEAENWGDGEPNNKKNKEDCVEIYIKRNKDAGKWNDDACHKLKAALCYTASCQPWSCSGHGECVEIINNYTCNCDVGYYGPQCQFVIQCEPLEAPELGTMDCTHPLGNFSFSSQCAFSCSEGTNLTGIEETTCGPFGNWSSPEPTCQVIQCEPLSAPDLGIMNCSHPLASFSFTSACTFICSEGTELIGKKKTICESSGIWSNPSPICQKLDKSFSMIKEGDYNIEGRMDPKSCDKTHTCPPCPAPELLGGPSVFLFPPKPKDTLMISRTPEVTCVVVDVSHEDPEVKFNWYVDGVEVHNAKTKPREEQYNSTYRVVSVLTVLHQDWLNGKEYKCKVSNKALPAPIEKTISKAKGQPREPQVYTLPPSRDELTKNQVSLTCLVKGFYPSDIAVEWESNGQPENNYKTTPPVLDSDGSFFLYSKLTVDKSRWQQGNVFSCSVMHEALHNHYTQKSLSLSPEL

unfractionated heparin: the IC50 at L-selectin [1] is 12 µM.

`COCCOCCOCCOCCOCC(COCCOCCOCCOCCOC)(COCCOCCOCCOCCOC)NC(=O)CCCCCNC(=O)[C@H](Cc1ccccc1)NC(=O)[C@H](Cc1ccccc1)NC(=O)[C@H](Cc1ccccc1)NC(=O)c1cc(C(=O)N[C@@H](Cc2ccccc2)C(=O)N[C@@H](Cc2ccccc2)C(=O)N[C@@H](Cc2ccccc2)C(=O)NCCCCCC(=O)NCCOCCNC(=O)Cn2cc(COC(COC(COC(COS(=O)(=O)O)COS(=O)(=O)O)COC(COS(=O)(=O)O)COS(=O)(=O)O)COC(COC(COS(=O)(=O)O)COS(=O)(=O)O)COC(COS(=O)(=O)O)COS(=O)(=O)O)nn2)cc(C(=O)N[C@@H](Cc2ccccc2)C(=O)N[C@@H](Cc2ccccc2)C(=O)N[C@@H](Cc2ccccc2)C(=O)NCCCCCC(=O)NC(COCCOCCOCCOCCOC)(COCCOCCOCCOCCOC)COCCOCCOCCOCCOC)c1` [II]: in data set [2], the “length of long rigid rods” value is “several hundred nanometers”. Besides, in data set [3], the “added NaCl at which the characteristic β-sheet CD signature is restored” value was above 100 mM.

As for `COCCOCCOCCOCCOCC(COCCOCCOCCOCCOC)(COCCOCCOCCOCCOC)NC(=O)CCCCCNC(=O)[C@H](Cc1ccccc1)NC(=O)[C@H](Cc1ccccc1)NC(=O)[C@H](Cc1ccccc1)NC(=O)c1cc(C(=O)N[C@@H](Cc2ccccc2)C(=O)N[C@@H](Cc2ccccc2)C(=O)N[C@@H](Cc2ccccc2)C(=O)NCCCCCC(=O)NC(COCCOCCOCCOCCOC)(COCCOCCOCCOCCOC)COCCOCCOCCOCCOC)cc(C(=O)N[C@@H](Cc2ccccc2)C(=O)N[C@@H](Cc2ccccc2)C(=O)N[C@@H](Cc2ccccc2)C(=O)NCCCCCC(=O)NC(COCCOCCOCCOCCOC)(COCCOCCOCCOCCOC)COCCOCCOCCOCCOC)c1` [I], the IC50 at L-selectin [4] turned out to be 5 µM.
